Assay results reported in paper PMC5020642, “Structural insight into the arginine-binding specificity of CASTOR1 in amino acid-dependent mTORC1 signaling” (Cell Discovery, 2016).
Numbering of substitutions follows the chain as printed. Each block holds one molecule with its values, some of them ahead of it.

Experiments:
[1] = biological target: T1, A^2A^2A^2A^1; test: isothermal titration calorimetry; type: binding, Homo sapiens; conditions: 20 °C; 1 mM ligand titrated into 70 μM protein; single-site model
T1 construct: gene CASTOR2; one polypeptide: CASTOR2 with ACT4 replaced by ACT4 of CASTOR1 (ACT4 of CASTOR1 = residues 176-179 and 263-329); E. coli
From the text: isothermal titration calorimetry on A^2A^2A^2A^1

[2] = biological target: T2, A^2A^1A^2A^2; test: isothermal titration calorimetry; type: binding, Homo sapiens; conditions: 20 °C; 1 mM ligand titrated into 70 μM protein; single-site model
T2 construct: gene CASTOR2; one polypeptide: CASTOR2 with ACT2 replaced by ACT2 of CASTOR1 (ACT2 of CASTOR1 = residues 1-5 and 76-147); E. coli
From the text: isothermal titration calorimetry on A^2A^1A^2A^2

[3] = biological target: T3, CASTOR1 (Homo sapiens, UniProt Q8WTX7, L113A); test: isothermal titration calorimetry; type: binding
T3 construct: full-length, residues 1-329, C-terminal His6 tag (pET-28a), E. coli BL21(DE3), homodimer in solution; Ni-NTA and gel filtration
T3 sequence (Q8WTX7 1-329 L113A): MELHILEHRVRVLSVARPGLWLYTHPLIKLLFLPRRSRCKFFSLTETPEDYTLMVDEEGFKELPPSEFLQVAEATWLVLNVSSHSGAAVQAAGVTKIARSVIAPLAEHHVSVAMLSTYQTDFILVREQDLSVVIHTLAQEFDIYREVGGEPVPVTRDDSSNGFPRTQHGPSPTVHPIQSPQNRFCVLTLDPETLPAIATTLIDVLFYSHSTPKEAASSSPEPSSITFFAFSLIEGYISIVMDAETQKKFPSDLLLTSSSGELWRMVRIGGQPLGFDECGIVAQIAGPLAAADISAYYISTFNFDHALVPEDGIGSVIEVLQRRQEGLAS
From the text: (§1) isothermal titration calorimetry on CASTOR1

[4] = biological target: T4, CASTOR1 (Homo sapiens, UniProt Q8WTX7, V281A); test: isothermal titration calorimetry; type: binding
T4 construct: full-length, residues 1-329, C-terminal His6 tag (pET-28a), E. coli BL21(DE3), homodimer in solution; Ni-NTA and gel filtration
T4 sequence (Q8WTX7 1-329 V281A): T3 sequence (Q8WTX7 1-329 L113A) with A113L, V281A
From the text: as §1

[5] = biological target: T5, CASTOR1 (Homo sapiens, UniProt Q8WTX7, F303A); test: isothermal titration calorimetry; type: binding
T5 construct: full-length, residues 1-329, C-terminal His6 tag (pET-28a), E. coli BL21(DE3), homodimer in solution; Ni-NTA and gel filtration
T5 sequence (Q8WTX7 1-329 F303A): T3 sequence (Q8WTX7 1-329 L113A) with A113L, F303A
From the text: as §1

[6] = biological target: T6, A^2A^1A^2A^1; test: isothermal titration calorimetry; type: binding, Homo sapiens; conditions: 20 °C; 1 mM ligand titrated into 70 μM protein; single-site model
T6 construct: gene CASTOR2; one polypeptide: CASTOR2 with ACT2 and ACT4 replaced by those of CASTOR1 (CASTOR1 residues 1-5, 76-147, 176-179, 263-329); E. coli
From the text: isothermal titration calorimetry on A^2A^1A^2A^1

[7] = biological target: T7, CASTOR1 (Homo sapiens, UniProt Q8WTX7); test: isothermal titration calorimetry; type: binding
T7 construct: full-length, residues 1-329, C-terminal His6 tag (pET-28a), E. coli BL21(DE3), homodimer in solution; Ni-NTA and gel filtration
T7 sequence (Q8WTX7 1-329): T3 sequence (Q8WTX7 1-329 L113A) with A113L

[8] = biological target: the molecule itself; test: SEC + other: dynamic light scattering; purified recombinant proteins in solution; CASTOR1 with and without arginine (dimerization independent of arginine); the CASTOR1-CASTOR2 complex analysed after co-purification

Kd [1]: 40.2 ± 8.4 µM
Kd [2]: 55 ± 11.5 µM
Kd [3]: 160 ± 23.6 µM
Kd [4]: 25.6 ± 4.3 µM
Kd [5]: 17.6 ± 1.9 µM
Kd [6]: 8.6 ± 1.9 µM
Kd [7]: 5.5 ± 0.4 µM
Molecule: N=C(N)NCCC[C@H](N)C(=O)O [arginine]

B1: full-length human CASTOR1 (residues 1-329), His6-tagged (natural protein, UniProt Q8WTX7 1-329, looked up)
chain: T3 sequence (Q8WTX7 1-329 L113A) with A113L
notes: CASTOR1, human, full length, residues 1-329; Cloned in pET-28a (NcoI/XhoI); Se-Met substituted protein was used for phasing; No removal of the His6 tag is described; also called recombinant CASTOR1; source: E. coli BL21 (DE3), purified (Ni-NTA, gel filtration on Superdex 200)
stoichiometry N [8]: 2

B2: CASTOR2, His6-SUMO fusion (natural protein, human, UniProt A6NHX0 1-329, looked up)
chain: MELHILEHRLQVASVAKESIPLFTYGLIKLAFLSSKTRCKFFSLTETPEDYTIIVDEEGFLELPSSEHLSVADATWLALNVVSGGGSFSSSQPIGVTKIAKSVIAPLADQNISVFMLSTYQTDFILVRERDLPFVTHTLSSEFTILRVVNGETVAAENLGITNGFVKPKLVQRPVIHPLSSPSNRFCVTSLDPDTLPAVATLLMDVMFYSNGVKDPMATGDDCGHIRFFSFSLIEGYISLVMDVQTQQRFPSNLLFTSASGELWKMVRIGGQPLGFDECGIVAQISEPLAAADIPAYYISTFKFDHALVPEENINGVISALKVSQAEKH
notes: CASTOR2, human; Homodimer on its own; in the co-expressed complex with m3 it stands once (heterodimer); Purification of the co-expressed complex is said to be the same as for CASTOR1 (Ni-NTA), so the tag would be the handle there; also called His6-SUMO fused castor2; source: E. coli BL21 (DE3), purified (Ni-NTA, gel filtration); also co-expressed with untagged CASTOR1 in E. coli BL21 (DE3)
stoichiometry N [8]: 2
